In patent US10294202B2, “Pyrrolidinones as herbicides” (FMC Corporation, priority 2013, dated 2019):

Key:
[1] = tested on: field bindweed; assay: Test E preemergence herbicide test; format: in vivo, Convolvulus arvensis; parameters: key: 0 = no effect, 100 = complete control
Excerpt: (§1) Seeds of plant species selected from corn (Zea mays), soybean (Glycine max), velvetleaf (Abutilon theophrasti), lambsquarters (Chenopodium album), wild poinsettia (Euphorbia heterophylla), pigweed, palmer (palmer pigweed, Amaranthus palmeri), waterhemp (common waterhemp, Amaranthus rudis), surinam grass (Brachiaria decumbens), crabgrass, large (large crabgrass, Digitaria sanguinalis), crabgrass, Brazil (Brazilian crabgrass, Digitaria horizontalis), panicum, fall (fall panicum, Panicum dichotomiflorum), foxtail, giant (giant foxtail, Setaria faberii), foxtail, green (green foxtail, Setaria viridis), goosegrass (Eleusine indica), johnsongrass (Sorghum halepense), ragweed (common ragweed, Ambrosia elatior), barnyardgrass (Echinochloa crus-galli), sandbur (southern sandbur, Cenchrus echinatus), arrowleaf […] rhombifolia), ryegrass, Italian (Italian ryegrass, Lolium multiflorum), dayflower, VA (Virginia dayflower, Commelina virginica), field bindweed (Convolvulus arvensis), morningglory (Ipomoea coccinea), nightshade (eastern black nightshade, Solanum ptycanthum), kochia (Kochia scoparia), nutsedge, yellow (yellow nutsedge, Cyperus esculentus), cocklebur (common cocklebur, Xanthium strumarium), smartweed (ladysthumb smartweed, Polygonum Persicaria) and beggarticks (hairy beggarticks, Bidens pilosa), were planted into a silt loam soil and treated preemergence with test chemicals formulated in a non-phytotoxic solvent mixture which included a surfactant. Treated plants and controls were maintained in a greenhouse for 21 days, after which time all species were compared to controls and visually evaluated. Plant response ratings, summarized in Table E, are based on a scale of 0 to 100 where 0 is no effect and 100 is complete control. A dash (-) response means no test result.

[2] = tested on: nightshade; assay: Test E preemergence herbicide test; format: in vivo, Solanum ptycanthum; parameters: key: 0 = no effect, 100 = complete control
Excerpt: as §1

[3] = tested on: ragweed; assay: Test E preemergence herbicide test; format: in vivo, Ambrosia elatior; parameters: key: 0 = no effect, 100 = complete control
Excerpt: as §1

[4] = tested on: kochia; assay: Test E preemergence herbicide test; format: in vivo, Kochia scoparia; parameters: key: 0 = no effect, 100 = complete control
Excerpt: as §1

[5] = tested on: beggarticks; assay: Test E preemergence herbicide test; format: in vivo, Bidens pilosa; parameters: key: 0 = no effect, 100 = complete control
Excerpt: as §1

[6] = tested on: goosegrass; assay: Test E preemergence herbicide test; format: in vivo, Eleusine indica; parameters: key: 0 = no effect, 100 = complete control
Excerpt: as §1

[7] = tested on: foxtail, green; assay: Test E preemergence herbicide test; format: in vivo, Setaria viridis; parameters: key: 0 = no effect, 100 = complete control
Excerpt: as §1

[8] = tested on: lambsquarters; assay: Test D pre-/postemergence herbicide test; format: in vivo, Chenopodium album; conditions: Postemergence, Lambsquarters, scale 0 to 100
In short: (§2)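 Visual ratings from 0 (no effect) to 100 (complete control) were made against untreated controls 7 to 21 days after treatment. Application was both preemergence, on silt loam soil, and postemergence, to 1- to 4-leaf plants 2-18 cm tall; compounds were formulated in a non-phytotoxic surfactant-containing solvent.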

[9] = tested on: bluegrass; assay: Test D pre-/postemergence herbicide test; format: in vivo, Poa annua; conditions: Postemergence, Bluegrass, scale 0 to 100
In short: as §2

[10] = tested on: mustard, wild; assay: Test D pre-/postemergence herbicide test; format: in vivo, Sinapis arvensis; conditions: Postemergence, Mustard, Wild, scale 0 to 100
In short: as §2

[11] = tested on: speedwell; assay: Test D pre-/postemergence herbicide test; format: in vivo, Veronica persica; conditions: Postemergence, Speedwell, scale 0 to 100
Excerpt: (§3) Seeds of plant species selected from bluegrass (annual bluegrass, Poa annua), blackgrass (Alopecurus myosuroides), canarygrass (littleseed canarygrass, Phalaris minor), chickweed (common chickweed, Stellaria media), galium (catchweed bedstraw, Galium aparine), bromegrass, downy (downy bromegrass, Bromus tectorum), field poppy (Papaver rhoeas), field violet (Viola arvensis), foxtail, green (green foxtail, Setaria viridis), deadnettle (henbit deadnettle, Lamium amplexicaule), ryegrass, Italian (Italian ryegrass, Lolium multiflorum), kochia (Kochia scoparia), lambsquarters (Chenopodium album), oilseed rape (Brassica napus), pigweed (Amaranthus retroflexus), chamomile (scentless chamomile, Matricaria inodora), Russian thistle (Salsola kali), speedwell (bird's-eye speedwell, Veronica persica), barley, spring (spring barley, Hordeum vulgare), wheat, spring (spring wheat, Triticum aestivum), buckwheat, wild (wild buckwheat, Polygonum convolvulus), mustard, wild (wild mustard, Sinapis arvensis), oat, wild (wild oat, Avena fatua), radish, wild (wild radish, Raphanus raphanistrum), […]), barley, winter (winter barley, Hordeum vulgare), and wheat, winter (winter wheat, Triticum aestivum) were planted into a silt loam soil and treated preemergence with test chemicals formulated in a non-phytotoxic solvent mixture which included a surfactant. At the same time, these species were planted in pots containing Redi-Earth® planting medium (Scotts Company, 14111 Scottslawn Road, Marysville, Ohio 43041) comprising spaghnum peat moss, vermiculite, wetting agent and starter nutrients and treated with postemergence applications of the test chemicals formulated in the same manner. Plants ranged in height from 2 to 18 cm (1- to 4-leaf stage). Treated plants and controls were maintained in a controlled growth environment for 7 to 21 days after which time all species were compared to controls and visually evaluated. Plant response ratings, summarized in Table D, are based on a scale of 0 to 100 where 0 is no effect and 100 is complete control. A dash (-) response means no test result.

[12] = tested on: field poppy; assay: Test D pre-/postemergence herbicide test; format: in vivo, Papaver rhoeas; conditions: Postemergence, Field Poppy, scale 0 to 100
Excerpt: as §3

SMILES: O=C1NCC(c2ccc(F)cc2)C1C(=O)Nc1ccccc1F (racemic) [Compound 16]
- Plant response rating, Field Bindweed ([1]; 16 g ai/ha): 0
- Plant response rating, Field Bindweed ([1]; 31 g ai/ha): 0
- Plant response rating, Field Bindweed ([1]; 62 g ai/ha): 0
- Plant response rating, Field Bindweed ([1]; 125 g ai/ha): 0
- Plant response rating, Field Bindweed ([1]; 250 g ai/ha): 0
- Plant response rating, Nightshade ([2]; 16 g ai/ha): 0
- Plant response rating, Nightshade ([2]; 31 g ai/ha): 0
- Plant response rating, Nightshade ([2]; 62 g ai/ha): 0
- Plant response rating, Nightshade ([2]; 125 g ai/ha): 0
- Plant response rating, Nightshade ([2]; 250 g ai/ha): 0
- Plant response rating, Ragweed ([3]; 62 g ai/ha): 0
- Plant response rating, Ragweed ([3]; 125 g ai/ha): 0
- Plant response rating, Ragweed ([3]; 250 g ai/ha): 0
- Plant response rating, Kochia ([4]; 31 g ai/ha): 0
- Plant response rating, Kochia ([4]; 125 g ai/ha): 0
- Plant response rating, Kochia ([4]; 250 g ai/ha): 0
- Plant response rating, Beggarticks ([5]; 16 g ai/ha): 0
- Plant response rating, Beggarticks ([5]; 125 g ai/ha): 0
- Plant response rating, Beggarticks ([5]; 250 g ai/ha): 0
- Plant response rating, Goosegrass ([6]; 16 g ai/ha): 0
- Plant response rating, Goosegrass ([6]; 31 g ai/ha): 0
- Plant response rating, Goosegrass ([6]; 62 g ai/ha): 0
- Plant response rating, Goosegrass ([6]; 125 g ai/ha): 0
- Plant response rating, Goosegrass ([6]; 250 g ai/ha): 0
- Plant response rating, Foxtail, Green ([7]; 16 g ai/ha): 0
- Plant response rating, Foxtail, Green ([7]; 31 g ai/ha): 0
- Plant response rating, Foxtail, Green ([7]; 62 g ai/ha): 10
- Plant response rating, Foxtail, Green ([7]; 125 g ai/ha): 25
- Plant response rating, Foxtail, Green ([7]; 250 g ai/ha): 95

SMILES: O=C1NCC(c2cc(F)c(F)c(F)c2)C1C(=O)Nc1ccccc1F (racemic) [Compound 34]
- Plant response rating ([8]; 16 g ai/ha): 0
- Plant response rating ([8]; 31 g ai/ha): 0
- Plant response rating ([8]; 62 g ai/ha): 0
- Plant response rating ([8]; 125 g ai/ha): 0
- Plant response rating ([8]; 250 g ai/ha): 20
- Plant response rating ([9]; 16 g ai/ha): 0
- Plant response rating ([9]; 31 g ai/ha): 0
- Plant response rating ([9]; 62 g ai/ha): 0
- Plant response rating ([9]; 125 g ai/ha): 0
- Plant response rating ([9]; 250 g ai/ha): 0
- Plant response rating ([10]; 16 g ai/ha): 0
- Plant response rating ([10]; 31 g ai/ha): 0
- Plant response rating ([10]; 62 g ai/ha): 0
- Plant response rating ([10]; 125 g ai/ha): 10
- Plant response rating ([10]; 250 g ai/ha): 20
- Plant response rating ([11]; 16 g ai/ha): 0
- Plant response rating ([11]; 31 g ai/ha): 0
- Plant response rating ([11]; 62 g ai/ha): 0
- Plant response rating ([11]; 125 g ai/ha): 0
- Plant response rating ([11]; 250 g ai/ha): 30
- Plant response rating ([12]; 16 g ai/ha): 0
- Plant response rating ([12]; 31 g ai/ha): 0
- Plant response rating ([12]; 62 g ai/ha): 0
- Plant response rating ([12]; 125 g ai/ha): 0
- Plant response rating ([12]; 250 g ai/ha): 20

SMILES: O=C1NCC(c2ccc(C(F)(F)F)cc2)C1C(=O)Nc1ccc(F)c(F)c1F (stereo not drawn) [Compound 232]
- Plant response rating, Field Bindweed ([1]; 31 g ai/ha): 0
- Plant response rating, Field Bindweed ([1]; 62 g ai/ha): 0
- Plant response rating, Field Bindweed ([1]; 125 g ai/ha): 40
- Plant response rating, Field Bindweed ([1]; 250 g ai/ha): 40
- Plant response rating, Nightshade ([2]; 31 g ai/ha): 25
- Plant response rating, Nightshade ([2]; 62 g ai/ha): 75
- Plant response rating, Nightshade ([2]; 125 g ai/ha): 98
- Plant response rating, Ragweed ([3]; 31 g ai/ha): 35
- Plant response rating, Ragweed ([3]; 62 g ai/ha): 75
- Plant response rating, Ragweed ([3]; 125 g ai/ha): 95
- Plant response rating, Ragweed ([3]; 250 g ai/ha): 95
- Plant response rating, Kochia ([4]; 31 g ai/ha): 90
- Plant response rating, Kochia ([4]; 62 g ai/ha): 95
- Plant response rating, Kochia ([4]; 125 g ai/ha): 98
- Plant response rating, Kochia ([4]; 250 g ai/ha): 98
- Plant response rating, Beggarticks ([5]; 31 g ai/ha): 0
- Plant response rating, Beggarticks ([5]; 62 g ai/ha): 0
- Plant response rating, Beggarticks ([5]; 125 g ai/ha): 20
- Plant response rating, Beggarticks ([5]; 250 g ai/ha): 60
- Plant response rating, Goosegrass ([6]; 31 g ai/ha): 35
- Plant response rating, Goosegrass ([6]; 62 g ai/ha): 80
- Plant response rating, Goosegrass ([6]; 125 g ai/ha): 85
- Plant response rating, Goosegrass ([6]; 250 g ai/ha): 95
- Plant response rating, Foxtail, Green ([7]; 31 g ai/ha): 80
- Plant response rating, Foxtail, Green ([7]; 62 g ai/ha): 95
- Plant response rating, Foxtail, Green ([7]; 125 g ai/ha): 98
- Plant response rating, Foxtail, Green ([7]; 250 g ai/ha): 98
